Laboratory results taken from patent US20070078263A1, “BIARYL SUBSTITUTED HETEROCYCLE INHIBITORS OF LTA4H FOR TREATING INFLAMMATION” (deCODE Chemistry, Inc., priority 2005, published 2007).
Structures can show the parent of a compound that is named as a salt.

What follows are molecules tested against T1, human LTA4 hydrolase (Homo sapiens, UniProt P09960) (assay: In vitro assay testing inhibitory activity against purified recombinant human LTA4 hydrolase (LTB4 formed, LC-MS/MS)). Conditions: not given.
T1 construct: A human LTA4 hydrolase full-length cDNA clone (NM 000895) was purchased; His tag (6xHis of vector pDEST17); made in house; host or cells: Escherichia coli BL21-AI
T1 sequence (P09960 1-611): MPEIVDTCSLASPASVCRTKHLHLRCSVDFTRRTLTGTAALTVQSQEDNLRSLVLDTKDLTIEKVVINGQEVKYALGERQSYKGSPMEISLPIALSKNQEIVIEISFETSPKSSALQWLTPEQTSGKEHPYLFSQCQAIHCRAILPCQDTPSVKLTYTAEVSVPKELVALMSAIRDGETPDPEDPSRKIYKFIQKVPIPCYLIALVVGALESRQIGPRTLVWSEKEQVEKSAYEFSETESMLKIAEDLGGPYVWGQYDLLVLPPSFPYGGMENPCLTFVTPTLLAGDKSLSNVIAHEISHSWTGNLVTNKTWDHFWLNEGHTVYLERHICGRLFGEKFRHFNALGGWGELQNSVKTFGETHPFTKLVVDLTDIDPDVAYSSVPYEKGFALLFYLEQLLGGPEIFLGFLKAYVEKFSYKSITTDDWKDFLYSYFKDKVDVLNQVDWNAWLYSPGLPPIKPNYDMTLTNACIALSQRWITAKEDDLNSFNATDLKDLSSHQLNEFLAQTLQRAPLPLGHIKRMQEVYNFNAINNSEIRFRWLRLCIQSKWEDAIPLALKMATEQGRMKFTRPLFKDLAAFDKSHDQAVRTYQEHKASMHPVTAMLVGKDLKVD
Type: biochemical
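Further: 200 nM enzyme preincubated 10 min at room temperature with serial inhibitor dilutions in pH 8.0 Tris buffer with BSA and 10% DMSO, then 2 µM LTA4 added.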

Row | SMILES | IC50
1 | c1ccc(CNc2ccc(OC[C@H]3CCCN3)cc2)cc1 [Example 48, Benzyl-[4-((R)-1-pyrrolidin-2-ylmethoxy)-phenyl]-amine] | < 5 µM

Same assay, conditions: recombinant human LTA4 hydrolase 200 nM, LTA4 2 μM; read-out: AvgIC50

Row | SMILES | IC50
2 | O=C(O)CCCN1CCC[C@H]1COc1ccc(Cc2ccc(-c3cccs3)cc2)cc1 [Example 118] | < 5 µM
3 | c1ccc(CO[C@H]2CN[C@H](COc3ccc(Oc4ccccc4)cc3)C2)cc1 [Example 85] | 5 to 20 µM
4 | FC(F)(F)c1cccc(COc2ccc(OC[C@H]3CCCN3)cc2)c1 [Example 96, (R)-2-[4-(3-Trifluoromethyl-benzyloxy)-phenoxymethyl]-pyrrolidine Hydrogen chloride salt] | 5 to 20 µM
5 | c1ccc(Cc2ccc(OCC[C@@H]3CCCCN3)cc2)cc1 [Example 71, (S)-2-[(4-Benzylphenoxy)ethyl]-piperidine hydrochloride] | < 5 µM
6 | O=C(c1ccccc1)c1ccc(OC[C@H]2CCCN2)cc1 [Example 46, Phenyl-[4-((R)-1-pyrrolidin-2-ylmethoxy)-phenyl]-methanone] | 5 to 20 µM
7 | c1ccc(Cc2ccc(-c3ccc(OC[C@H]4CCCN4)cc3)s2)cc1 [Example 170, (R)-2-[4-(5-Benzyl-thiophen-2-yl)-phenoxymethyl]-pyrrolidine] | < 5 µM
8 | OC(c1ccc(OC[C@H]2CCCN2)cc1)c1ccc(-c2ccsc2)cc1 (stereo partly drawn) [Example 129, [4-((R)-1-Pyrrolidin-2-ylmethoxy)-phenyl]-(4-thiophen-3-yl-phenyl)-methanol] | 5 to 20 µM
9 | c1ccc(Oc2ccc(SC[C@H]3CCCN3)cc2)cc1 [Example 43, (R)-2-(4-Phenoxy-phenylsulfanylmethyl)-pyrrolidine] | < 5 µM
10 | OCCCCN1CCC[C@H]1COc1ccc(Cc2ccccc2)cc1 [Example 33, 4-[(S)-2-(4-Benzyl-phenoxymethyl)-pyrrolidin-1-yl]-butan-1-ol] | < 5 µM
11 | c1ccc(-c2ccc(Cc3ccc(OC[C@H]4CCCN4)cc3)o2)cc1 [Example 163, (R)-2-[4-(5-Phenyl-furan-2-ylmethyl)-phenoxymethyl]-pyrrolidine] | < 5 µM
12 | O=C(O)CCCN1CCC[C@@H]1COCc1ccc(Cc2ccccc2)cc1 [Example 157, 4-[(R)-2-(4-Benzyl-benzyloxymethyl)pyrrolidin-1-yl]butylic acid hydrochloride salt] | < 5 µM
13 | C[C@@H](NC(=O)CCCN1CCC[C@H]1COc1ccc(Oc2ccc(Cl)cc2)cc1)c1ccccc1 [Example 139, 4-{(S)-2-[4-(4-Chloro-phenoxy)-phenoxymethyl]-pyrrolidin-1-yl}-N—[(R)-1-phenylethyl]-butyramide] | < 5 µM
14 | O=C(O)CCCN1CCC[C@@H]1COc1ccc(Cc2ccc(Cl)cc2)cc1 [Example 65, 4-{(R)-2-[4-(4-Chloro-benzyl)-phenoxymethyl]-pyrrolidin-1-yl}-butyric acid] | < 5 µM
15 | c1cc(-c2ccc(Cc3ccc(OC[C@H]4CCCCN4)cc3)cc2)cs1 [Example 78, (R)-2-[4-(4-Thiophen-3-yl-benzyl)-phenoxymethyl]-piperidine hydrochloride] | < 5 µM
16 | c1ccc(-c2ccc(Cc3ccc(OC[C@@H]4CCCN4)cc3)s2)cc1 [Example 161, (S)-2-[4-(5-Phenyl-thiophen-2-ylmethyl)-phenoxymethyl]-pyrrolidine hydrochloride salt] | < 5 µM
17 | O=C(O)CCCN1CCC[C@H]1COc1ccc(Oc2ccc(C(F)(F)F)cc2)cc1 [Example 25] | < 5 µM
18 | c1csc(-c2ccc(Oc3ccc(OC[C@H]4CCCN4)cc3)cc2)c1 [Example 131, (R)-2-[4-(4-Thiophen-2-yl-phenoxy)-phenoxymethyl]-pyrrolidine-1-hydrogen chloride salt] | 5 to 20 µM
19 | O=C(O)CCN1CCC[C@@H]1COc1ccc(Oc2ccncc2)cc1 [Example 145, 3-{(R)-2-[4-(Pyridin-4-yloxy)-phenoxymethyl]-pyrrolidin-1-yl}-propionic acid] | < 5 µM
20 | c1ccc2[nH]c(Oc3ccc(OC[C@H]4CCCN4)cc3)nc2c1 [Example 103, 2-[4-((R)-1-Pyrrolidin-2-ylmethoxy)-phenoxy]-1H-benzoimidazole Hydrogen chloride salt] | < 5 µM
21 | c1ccc(Cc2ccc(OCCC3CCCCN3)cc2)cc1 (racemic) [Example 72, (+/−)-2-[(4-Benzylphenoxy)ethyl]-piperidine hydrochloride] | < 5 µM
22 | CC(=O)NCCCN1CCC[C@H]1COc1ccc(Oc2ccc(Cl)cc2)cc1 [Example 38, N-(3-{(S)-2-[4-(4-Chloro-phenoxy)-phenoxymethyl]-pyrrolidin-1-yl}-propyl)-acetamide HCl] | < 5 µM
23 | c1cc(-c2ccc(Cc3ccc(OC[C@H]4CCCN4)cc3)cc2)ccn1 [Example 125, 4-{4-[4-((R)-1-Pyrrolidin-2-ylmethoxy)-benzyl]-phenyl}-pyridine hydrogen chloride salt] | 5 to 20 µM
24 | c1cncc(-c2ccc(Cc3ccc(OC[C@H]4CCCN4)cc3)cc2)c1 [Example 126, 3-{4-[4-((R)-1-Pyrrolidin-2-ylmethoxy)-benzyl]-phenyl}-pyridine] | 5 to 20 µM
25 | c1ccc(Cc2ccc(NC[C@H]3CCCN3)cc2)cc1 [Example 41, (4-Benzyl-phenyl)-(R)-1-pyrrolidin-2-ylmethyl-anine] | < 5 µM

The next lines start with the values.

Row | IC50 | SMILES
26 | < 5 µM | O=C(O)CN1CCCC[C@H]1COc1ccc(Oc2ccc(Cl)cc2)cc1 [Example 62, {(S)-2-[4-(4-Chloro-phenoxy)-phenoxymethyl]-piperidin-1-yl}-acetic acid hydrochloride]
27 | < 5 µM | c1ncc(-c2ccc(Oc3ccc(OC[C@@H]4CCCN4)cc3)cc2)o1 [Example 89, 5-{4-[4-((S)-1-Pyrrolidin-2-ylmethoxy)-phenoxy]-phenyl}-oxazole]
28 | < 5 µM | c1ccc(Oc2ccc(OC[C@H]3CCCN3)cc2)cc1 [Example 45, (R)-2-(4-Phenoxy-phenoxymethyl)-pyrrolidine]
29 | < 5 µM | c1ccc(CN2CCNC(COc3ccc(Oc4ccccc4)cc3)C2)cc1 (stereo not drawn) [Example 75, dihydrochloride]
30 | < 5 µM | c1ccc(Cc2ccc(OC[C@H]3CCCN3Cc3ccncc3)cc2)cc1 [Example 6, 4-[(R)-2-(4-benzyl-phenoxymethyl)-pyrrolidin-1-ylmethyl]-pyridine]
31 | < 5 µM | Clc1ccc(Cc2ccc(OCC3CCCCN3)cc2)cc1 (stereo in doubt) [Example 166, (R)-2-[4-(4-Chlorobenzyl)-phenoxymethyl]-piperidine hydrochloride]
32 | < 5 µM | N#Cc1ccc(Oc2ccc(OC[C@H]3CCCN3)cc2)cc1 [Example 15, 4-[4-((R)-1-Pyrrolidin-2-ylmethoxy)-phenoxy]-benzonitrile hydrochloride]
33 | < 5 µM | Clc1ccc(COc2ccc(OC[C@H]3CCCN3)cc2)cc1 [Example 94, (R)-2-[4-(4-Chloro-benzyloxy)-phenoxymethyl]-pyrrolidine Hydrogen chloride salt]
34 | < 5 µM | c1ccc(Cc2ccc(-c3ccc(OC[C@@H]4CCCN4)cc3)s2)cc1 [Example 172, (S)-2-[4-(5-Benzyl-thiophen-2-yl)-phenoxymethyl]-pyrrolidine]
35 | < 5 µM | CC(=O)c1ccc(Oc2ccc(OC[C@H]3CCCN3)cc2)cc1 [Example 17, 1-{4-[4-((R)-1-Pyrrolidin-2-ylmethoxy)-phenoxy]-phenyl}-ethanone hydrochloride]
36 | < 5 µM | c1ccc(Cc2ccc(OC[C@H]3CCCN3)nc2)cc1 [Example 141, 5-Benzyl-2-((R)-1-pyrrolidin-2-ylmethoxy)-pyridinehydrochloride salt]
